# Target: T1, CYP17 (human testicular microsome) (Homo sapiens, UniProt P05093)
# T1 construct: using microsomal fraction from human testis (Celsis Cat #S00110) as the enzyme source; tissue Celsis S00110; host or cells: human testis microsomal fraction
# T1 sequence (P05093 1-508): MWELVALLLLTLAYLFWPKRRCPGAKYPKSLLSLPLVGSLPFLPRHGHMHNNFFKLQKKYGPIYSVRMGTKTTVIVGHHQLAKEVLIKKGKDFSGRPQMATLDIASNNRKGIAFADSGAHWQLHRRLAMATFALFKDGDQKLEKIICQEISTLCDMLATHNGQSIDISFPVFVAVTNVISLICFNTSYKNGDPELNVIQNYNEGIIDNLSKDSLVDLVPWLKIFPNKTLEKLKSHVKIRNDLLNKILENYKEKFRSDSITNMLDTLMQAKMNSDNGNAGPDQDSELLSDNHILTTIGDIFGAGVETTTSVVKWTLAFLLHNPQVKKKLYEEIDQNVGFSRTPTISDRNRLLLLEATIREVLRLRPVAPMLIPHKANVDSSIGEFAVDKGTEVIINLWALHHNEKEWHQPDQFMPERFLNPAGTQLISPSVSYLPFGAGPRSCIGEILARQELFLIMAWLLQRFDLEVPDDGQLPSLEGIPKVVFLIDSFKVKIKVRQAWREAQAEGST
# Test: CYP17 enzymatic assay (IC50) (Biological Example 4)
# Type: biochemical
# Conditions: human testicular microsome, DHEA by ELISA; read-out: Biological Example No. 4: CYP17 enzymatic assay IC50
row,Structure (SMILES),IC50
1,"Cc1cncc(C2=CC[C@H]3[C@@H]4CC[C@H]5CCOCC[C@]5(C)[C@H]4CC[C@]23C)c1 [Compound 126, 3-((5aS,5bS,7aS,10aS,10bR,12aS)-5a,7a-dimethyl-2,4,5,5a,5b,6,7,7a,10,10a,10b,11,12,12a-tetradecahydro-1H-cyclopenta[5,6]naphtho[1,2-d]oxepin-8-yl)-5-methylpyridine]",< 11 nM
2,"COc1cncc(C2=CC[C@H]3[C@@H]4CCC5=CC(=O)NCC[C@]5(C)[C@H]4CC[C@]23C)c1 [Compound 53, (5aR,7aS)-8-(5-methoxypyridin-3-yl)-5a,7a-dimethyl-4,5,5a,5b,6,7,7a,8,9,10,10a,10b,11,12-tetradecahydrocyclopenta[5,6]naphtho[2,1-c]azepin-3(2H)-one]",< 11 nM
3,"C=Cc1cncc(C2=CC[C@H]3[C@@H]4CCN5C(=O)CCCC[C@]5(C)[C@H]4CC[C@]23C)c1 [Compound 43, (11aR,13aS)-11a,13a-dimethyl-1-(5-vinylpyridin-3-yl)-3b,4,5,8,9,10,11,11a,11b,12,13,13a-dodecahydro-3H-azepino[2,1-a]cyclopenta[f]isoquinolin-7(3aH)-one]",< 11 nM
4,"CC(=O)O[C@H]1CC[C@@]2(C)[C@@H](CC[C@H]3C4=CC=C(n5ccnc5)[C@@]4(C)CC[C@@H]32)C1 [Compound 169, (5S,8R,9S,10S,13S)-17-(1H-imidazol-1-yl)-10,13-dimethyl-2,3,4,5,6,7,8,9,10,11,12,13-dodecahydro-1H-cyclopenta[a]phenanthren-3-yl acetate]",< 11 nM

# Target: T1, CYP17 (human testicular microsome)
# Test: CYP17 enzymatic assay (% inhibition at 10 nM), version 1 (Biological Example 5)
# Type: biochemical
# Conditions: 10 nM compound, DHEA by ELISA, read-out: Biological Example No. 5: CYP17 percent inhibition at 10 nM (version 1)
row,Structure (SMILES),inhibition at 0.01 µM
1,"Cc1cncc(C2=CC[C@H]3[C@@H]4CC[C@H]5CCOCC[C@]5(C)[C@H]4CC[C@]23C)c1 [Compound 126, 3-((5aS,5bS,7aS,10aS,10bR,12aS)-5a,7a-dimethyl-2,4,5,5a,5b,6,7,7a,10,10a,10b,11,12,12a-tetradecahydro-1H-cyclopenta[5,6]naphtho[1,2-d]oxepin-8-yl)-5-methylpyridine]",50 to 80%
2,"COc1cncc(C2=CC[C@H]3[C@@H]4CCC5=CC(=O)NCC[C@]5(C)[C@H]4CC[C@]23C)c1 [Compound 53, (5aR,7aS)-8-(5-methoxypyridin-3-yl)-5a,7a-dimethyl-4,5,5a,5b,6,7,7a,8,9,10,10a,10b,11,12-tetradecahydrocyclopenta[5,6]naphtho[2,1-c]azepin-3(2H)-one]",50 to 80%
3,"C=Cc1cncc(C2=CC[C@H]3[C@@H]4CCN5C(=O)CCCC[C@]5(C)[C@H]4CC[C@]23C)c1 [Compound 43, (11aR,13aS)-11a,13a-dimethyl-1-(5-vinylpyridin-3-yl)-3b,4,5,8,9,10,11,11a,11b,12,13,13a-dodecahydro-3H-azepino[2,1-a]cyclopenta[f]isoquinolin-7(3aH)-one]",50 to 80%
4,"CC(=O)O[C@H]1CC[C@@]2(C)[C@@H](CC[C@H]3C4=CC=C(n5ccnc5)[C@@]4(C)CC[C@@H]32)C1 [Compound 169, (5S,8R,9S,10S,13S)-17-(1H-imidazol-1-yl)-10,13-dimethyl-2,3,4,5,6,7,8,9,10,11,12,13-dodecahydro-1H-cyclopenta[a]phenanthren-3-yl acetate]",> 80%
5,"C[C@]12CC[C@H]3[C@@H](CC[C@H]4CNC(=O)CC[C@@]43C)C1=CC=C2c1cccnc1 [Compound 166, (5aR,5bS,7aS,10bR,12aR)-5a,7a-dimethyl-8-(pyridin-3-yl)-1,2,5,5a,5b,6,7,7a,10b,11,12,12a-dodecahydrocyclopenta[5,6]naphtho[2,1-c]azepin-3(4H)-one]",50 to 80%
6,"C[C@]12CC[C@H]3[C@@H](CCC4CC(=O)NCC[C@@]43C)C1=CC=C2n1ccnn1 (stereo partly drawn) [Compound 178, (5aS,5bS,7aS,10bR)-5a,7a-dimethyl-8-(1H-1,2,3-triazol-1-yl)-3,4,5,5a,5b,6,7,7a,10b,11,12,12a-dodecahydrocyclopenta[5,6]naphtho[1,2-d]azepin-2(1H)-one]",1 to 50%
7,"C[C@]12CCNC(=O)CC[C@@H]1CC[C@@H]1[C@@H]2CC[C@]2(C)C(c3cccnc3)=CC[C@@H]12 [Compound 101, (6aS,6bS,8aS,11aS,11bR,13a5)-6a,8a-dimethyl-9-(pyridin-3-yl)-4,5,6,6a,6b,7,8,8a,11,11a,11b,12,13,13a-tetradecahydro-1H-cyclopenta[5,6]naphtho[1,2-d]azocin-3(2H)-one]",50 to 80%
8,"CCc1cncc(C2=CC[C@H]3[C@@H]4CC=C5CCCC[C@]5(C)[C@H]4CC[C@]23C)c1 [Compound 64, 3-((10R,13S)-10,13-dimethyl-2,3,4,7,8,9,10,11,12,13,14,15-dodecahydro-1H-cyclopenta[a]phenanthren-17-yl)-5-ethylpyridine]",1 to 50%
9,"CC(=O)N1CCC[C@@]2(C)[C@@H](CC[C@@H]3[C@@H]2CC[C@]2(C)C(n4ccnn4)=CC[C@@H]32)C1 [Compound 141, 1-((5aR,5bS,7aS,10aS,10bR,12aR)-5a,7a-dimethyl-8-(1H-1,2,3-triazol-1-yl)-3,4,5,5a,5b,6,7,7a,10,10a,10b,11,12,12a-tetradecahydrocyclopenta[5,6]naphtho[2,1-c]azepin-2(1H)-yl)ethanone]",< 1%
10,"C[C@]12CC[C@H]3[C@@H](CCC4CNC(=O)CC[C@@]43C)C1=CC=C2n1ccnn1 (stereo partly drawn) [Compound 179, (5aR,5bS,7aS,10bR)-5a,7a-dimethyl-8-(1H-1,2,3-triazol-1-yl)-1,2,5,5a,5b,6,7,7a,10b,11,12,12a-dodecahydrocyclopenta[5,6]naphtho[2,1-c]azepin-3(4H)-one]",1 to 50%
11,"CCc1cncc(C2=CC[C@H]3[C@@H]4CC[C@H]5CCCCC[C@]5(C)[C@H]4CC[C@]23C)c1 [Compound 93, 3-((3aS,3bR,5aR,10aS,10bS,12aS)-10a,12a-dimethyl-3,3a,3b,4,5,5a,6,7,8,9,10,10a,10b,11,12,12a-hexadecahydrocyclohepta[a]cyclopenta[f]naphthalen-1-yl)-5-ethylpyridine]",1 to 50%
12,"Cc1cncc(C2=CC[C@H]3[C@@H]4CCN5CCCCC[C@]5(C)[C@H]4CC[C@]23C)c1 [Compound 45, (11aR,13aS)-11a,13a-dimethyl-1-(5-methylpyridin-3-yl)-3a,3b,4,5,7,8,9,10,11,11a,11b,12,13,13a-tetradecahydro-3H-azepino[2,1-a]cyclopenta[f]isoquinoline]",1 to 50%
13,"C[C@]12CCNCCC1CCC1C2CC[C@]2(C)C(n3ccnn3)=CCC12 (stereo partly drawn) [Compound 139, (5aS,7aS)-5a,7a-dimethyl-8-(1H-1,2,3-triazol-1-yl)-1,2,3,4,5,5a,5b,6,7,7a,10,10a,10b,11,12,12a-hexadecahydrocyclopenta[5,6]naphtho[1,2-d]azepine]",1 to 50%
14,"C[C@]12CCCCC[C@@H]1CC[C@@H]1[C@@H]2CC[C@]2(C)C(c3cnccc3Cl)=CC[C@@H]12 [Compound 96, 4-chloro-3-((3aS,3bR,5aR,10aS,10bS,12aS)-10a,12a-dimethyl-3,3a,3b,4,5,5a,6,7,8,9,10,10a,10b,11,12,12a-hexadecahydrocyclohepta[a]cyclopenta[f]naphthalen-1-yl)pyridine]",1 to 50%
15,"C[C@]12CC(=O)C[C@@H]1CC[C@@H]1[C@@H]2CC[C@]2(C)C(n3ccnn3)=CC[C@@H]12 [Compound 110, (3aS,5aS)-3a,5a-dimethyl-6-(1H-1,2,3-triazol-1-yl)-3,3a,3b,4,5,5a,8,8a,8b,9,10,10a-dodecahydrodicyclopenta[a,f]naphthalen-2(1H)-one]",1 to 50%
16,"CCOc1cncc(C2=CC[C@H]3[C@@H]4CC[C@H]5CCOCC[C@]5(C)[C@H]4CC[C@]23C)c1 [Compound 124, 3-((5aS,5bS,7aS,10aS,10bR,12aS)-5a,7a-dimethyl-2,4,5,5a,5b,6,7,7a,10,10a,10b,11,12,12a-tetradecahydro-1H-cyclopenta[5,6]naphtho[1,2-d]oxepin-8-yl)-5-ethoxypyridine]",50 to 80%
17,"COc1cncc(C2=CC[C@H]3[C@@H]4CC[C@H]5CCCCC[C@]5(C)[C@H]4CC[C@]23C)c1 [Compound 92, 3-((3aS,3bR,5aR,10aS,10bS,12aS)-10a,12a-dimethyl-3,3a,3b,4,5,5a,6,7,8,9,10,10a,10b,11,12,12a-hexadecahydrocyclohepta[a]cyclopenta[f]naphthalen-1-yl)-5-methoxypyridine]",50 to 80%
18,CN1CC[C@@]2(C)C(=CC1=O)CC[C@@H]1[C@@H]2CC[C@]2(C)C(n3cnc4ccccc43)=CC[C@@H]12 [Compound 155],1 to 50%
19,"Cc1ccncc1C1=CC[C@H]2[C@@H]3CC[C@H]4CCCCC[C@]4(C)[C@H]3CC[C@]12C [Compound 95, 3-((3aS,3bR,5aR,10aS,10bS,12aS)-10a,12a-dimethyl-3,3a,3b,4,5,5a,6,7,8,9,10,10a,10b,11,12,12a-hexadecahydrocyclohepta[a]cyclopenta[f]naphthalen-1-yl)-4-methylpyridine]",1 to 50%
20,"C[C@]12CCCCC[C@@H]1CC[C@@H]1[C@@H]2CC[C@]2(C)C(c3cccnc3)=CC[C@@H]12 [Compound 90, 3-((3aS,3bR,5aR,10aS,10bS,12aS)-10a,12a-dimethyl-3,3a,3b,4,5,5a,6,7,8,9,10,10a,10b,11,12,12a-hexadecahydrocyclohepta[a]cyclopenta[f]naphthalen-1-yl)pyridine]",1 to 50%
21,"CCOc1cncc(C2=CC[C@H]3[C@@H]4CC[C@H]5CCCCC[C@]5(C)[C@H]4CC[C@]23C)c1 [Compound 94, 3-((3aS,3bR,5aR,10aS,10bS,12aS)-10a,12a-dimethyl-3,3a,3b,4,5,5a,6,7,8,9,10,10a,10b,11,12,12a-hexadecahydrocyclohepta[a]cyclopenta[f]naphthalen-1-yl)-5-ethoxypyridine]",1 to 50%
22,"Cc1cncc(C2=CCC3C4CCC5=CN(C)CCC[C@]5(C)C4CC[C@]23C)c1 (stereo partly drawn) [Compound 446, (5aR,7aS)-2,5a,7a-trimethyl-8-(5-methylpyridin-3-yl)-2,3,4,5,5a,5b,6,7,7a,10,10a,10b,11,12-tetradecahydrocyclopenta[5,6]naphtho[2,1-c]azepine]",1 to 50%
23,CCc1cncc(C2=CC[C@H]3[C@@H]4CCC5=CCN(C)CC[C@]5(C)[C@H]4CC[C@]23C)c1 [Compound 150],1 to 50%

# Same assay, conditions: compound at 10 nM, read-out: CYP17 enzymatic assay % inhibition at 10 nM (Biological Example No. 5)
row,Structure (SMILES),inhibition at 0.01 µM
1,"COC1CC[C@@]2(C)[C@@H](CC[C@@H]3[C@@H]2CC[C@]2(C)C(c4cccnc4)=CC[C@@H]32)C1 (stereo partly drawn) [Compound 449, 3-((5S,8R,9S,10S,13S,14S)-3-methoxy-10,13-dimethyl-2,3,4,5,6,7,8,9,10,11,12,13,14,15-tetradecahydro-1H-cyclopenta[a]phenanthren-17-yl)pyridine]",1 to 50%
